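Cells were grown in 96-well plates and exposed to each compound for 48 hours at five concentrations; endpoints were interpolated linearly between bracketing concentrations, or set to the highest concentration if not reached. GI50 is the concentration that inhibits growth by half.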 Activity calls are given as the source filed them. Cut-off read from the data, not from the text of the source: active = GI50 up to about 1.1 µM and inactive = higher.
How the values were obtained:
Test in all cases: inhibition of tumour cell growth, NCI panel, 48 h
[1] = tested on: PC-3
[2] = tested on: NCI-H226
[3] = tested on: SF-539
[4] = tested on: HL-60
[5] = tested on: M14
[6] = tested on: OVCAR-8
[7] = tested on: TK-10
[8] = tested on: RXF 393
[9] = tested on: A549
[10] = tested on: ACHN
[11] = tested on: SNB-75
[12] = tested on: OVCAR-4
[13] = tested on: CCRF-CEM
[14] = tested on: 786-0
[15] = tested on: SK-MEL-28
[16] = tested on: MDA-MB-231
[17] = tested on: IGROV-1
[18] = tested on: HT-29
[19] = tested on: NCI-H460
[20] = tested on: MDA-N
[21] = tested on: SK-OV-3
[22] = tested on: SF-295
[23] = tested on: HCT-15
[24] = tested on: T47D
[25] = tested on: HCC 2998
[26] = tested on: COLO 205
[27] = tested on: Malme-3M
[28] = tested on: HOP-92
[29] = tested on: A498
[30] = tested on: NCI/ADR-RES
[31] = tested on: OVCAR-3
[32] = tested on: K562
[33] = tested on: EKVX
[34] = tested on: RPMI-8226
[35] = tested on: SNB-19
[36] = tested on: UACC-62
[37] = tested on: LOX IMVI
[38] = tested on: U-251
[39] = tested on: CAKI-1
[40] = tested on: HCT-116
[41] = tested on: NCI-H23
[42] = tested on: SK-MEL-5
[43] = tested on: DU-145
[44] = tested on: NCI-H522
[45] = tested on: Hs-578T
[46] = tested on: MDA-MB-435
[47] = tested on: OVCAR-5
[48] = tested on: SW-620
[49] = tested on: UACC-257
[50] = tested on: MOLT-4
[51] = tested on: UO-31
[52] = tested on: SF-268
[53] = tested on: SK-MEL-2
[54] = tested on: SN12C
[55] = tested on: KM12
[56] = tested on: BT-549
[57] = tested on: HOP-62
[58] = tested on: SR

## CO[C@H]1[C@@H](O)[C@H](O[C@@H]2C[C@H]3CC[C@@H]4[C@H](CC[C@]5(C)[C@@H](C6=CC(=O)OC6)CC[C@]45O)[C@@]3(C)[C@H](OC(C)=O)C2)O[C@@H](C)[C@H]1O
[1]
  GI50: 2.26 µM (inactive)
[2]
  GI50: 2.96 µM (inactive)
[3]
  GI50: 0.573 µM (active)
[4]
  GI50: 0.402 µM (active)
[5]
  GI50: 2.22 µM (inactive)
[6]
  GI50: 1.73 µM (inactive)
[7]
  GI50: 1.17 µM (inactive)
[8]
  GI50: 0.402 µM (active)
[9]
  GI50: 0.384 µM (active)
[10]
  GI50: 0.393 µM (active)
[11]
  GI50: 3.61 µM (inactive)
[12]
  GI50: 1.39 µM (inactive)
[13]
  GI50: 0.65 µM (active)
[14]
  GI50: 1.84 µM (inactive)
[15]
  GI50: 4.34 µM (inactive)
[16]
  GI50: 4.2 µM (inactive)
[17]
  GI50: 1.46 µM (inactive)
[18]
  GI50: 3.04 µM (inactive)
[19]
  GI50: 0.465 µM (active)
[20]
  GI50: 1.64 µM (inactive)
[21]
  GI50: 2.78 µM (inactive)
[22]
  GI50: 1.13 µM (inactive)
[23]
  GI50: 1.92 µM
[24]
  GI50: 3.19 µM (inactive)
[25]
  GI50: 7.18 µM (inactive)
[26]
  GI50: 2.06 µM (inactive)
[27]
  GI50: 1.18 µM (inactive)
[28]
  GI50: 2.54 µM (inactive)
[29]
  GI50: 1.31 µM (inactive)
[30]
  GI50: 1.77 µM (inactive)
[31]
  GI50: 0.573 µM (active)
[32]
  GI50: 1.96 µM (inactive)
[33]
  GI50: 1.29 µM (inactive)
[34]
  GI50: 2.05 µM (inactive)
[35]
  GI50: 4.28 µM (inactive)
[36]
  GI50: 2.43 µM (inactive)
[37]
  GI50: 1.52 µM (inactive)
[38]
  GI50: 2.54 µM (inactive)
[39]
  GI50: 0.533 µM (active)
[40]
  GI50: 0.76 µM (active)
[41]
  GI50: 0.662 µM (active)
[42]
  GI50: 0.494 µM (active)
[43]
  GI50: 0.726 µM (active)
[44]
  GI50: 0.574 µM (active)
[45]
  GI50: 2.07 µM (inactive)
[46]
  GI50: 3.19 µM (inactive)
[47]
  GI50: 2.18 µM (inactive)
[48]
  GI50: 2.36 µM (inactive)
[49]
  GI50: 2.84 µM (inactive)
[50]
  GI50: 0.281 µM (active)
[51]
  GI50: 1.27 µM (inactive)
[52]
  GI50: 0.646 µM (active)
[53]
  GI50: 2.88 µM (inactive)
[54]
  GI50: 0.552 µM (active)
[55]
  GI50: 5.83 µM (inactive)
[56]
  GI50: 0.637 µM (active)
[57]
  GI50: 0.933 µM (active)

## CNC(=S)N/N=C(\C)c1cc(OC)ccc1O
[1]
  GI50: > 96.4 µM (inactive)
[3]
  GI50: > 100 µM (inactive)
[4]
  GI50: > 31.4 µM (inactive)
[5]
  GI50: > 92.5 µM (inactive)
[6]
  GI50: > 100 µM (inactive)
[8]
  GI50: > 100 µM (inactive)
[9]
  GI50: > 100 µM (inactive)
[10]
  GI50: > 100 µM (inactive)
[11]
  GI50: > 95.3 µM (inactive)
[12]
  GI50: > 100 µM (inactive)
[13]
  GI50: > 27.9 µM (inactive)
[14]
  GI50: > 100 µM (inactive)
[15]
  GI50: > 100 µM (inactive)
[16]
  GI50: > 100 µM (inactive)
[17]
  GI50: > 64.9 µM (inactive)
[58]
  GI50: 43.5 µM (inactive)
[18]
  GI50: 0.951 µM (active)
[19]
  GI50: > 100 µM (inactive)
[20]
  GI50: > 100 µM (inactive)
[21]
  GI50: > 100 µM (inactive)
[22]
  GI50: > 100 µM (inactive)
[23]
  GI50: 63.1 µM
[24]
  GI50: > 100 µM (inactive)
[25]
  GI50: > 100 µM (inactive)
[26]
  GI50: 0.447 µM (active)
[27]
  GI50: > 100 µM (inactive)
[28]
  GI50: > 100 µM (inactive)
[29]
  GI50: > 100 µM (inactive)
[30]
  GI50: 28.6 µM (inactive)
[31]
  GI50: > 100 µM (inactive)
[32]
  GI50: 3.22 µM (inactive)
[33]
  GI50: > 100 µM (inactive)
[34]
  GI50: > 31.3 µM (inactive)
[35]
  GI50: > 100 µM (inactive)
[36]
  GI50: > 100 µM (inactive)
[37]
  GI50: > 100 µM (inactive)
[38]
  GI50: > 100 µM (inactive)
[39]
  GI50: > 100 µM (inactive)
[40]
  GI50: > 100 µM (inactive)
[41]
  GI50: > 100 µM (inactive)
[42]
  GI50: > 44.3 µM (inactive)
[43]
  GI50: > 100 µM (inactive)
[44]
  GI50: 3.9 µM (inactive)
[45]
  GI50: > 100 µM (inactive)
[46]
  GI50: > 78.9 µM (inactive)
[47]
  GI50: > 100 µM (inactive)
[48]
  GI50: > 100 µM (inactive)
[49]
  GI50: > 100 µM (inactive)
[50]
  GI50: > 65.6 µM (inactive)
[51]
  GI50: > 100 µM (inactive)
[52]
  GI50: > 100 µM (inactive)
[53]
  GI50: > 100 µM (inactive)
[54]
  GI50: > 100 µM (inactive)
[55]
  GI50: > 100 µM (inactive)
[56]
  GI50: > 100 µM (inactive)
[57]
  GI50: > 100 µM (inactive)
